According to ChEMBL document CHEMBL1201862, “PubChem BioAssay data set” (2004):
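Cells were grown in 96-well plates and exposed to each compound for 48 hours at five concentrations; endpoints were interpolated linearly between bracketing concentrations, or set to the highest concentration if not reached. GI50 is the concentration that inhibits growth by half.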 Activity calls are given as the source filed them. Rule as the data show it: active = GI50 up to about 1.1 µM and inactive = higher.

How the values were obtained:
Experiment in all cases: DTP human tumour cell line panel, 48 h
IGROV-1 = test system: IGROV-1
T47D = test system: T47D
SNB-75 = test system: SNB-75
MOLT-4 = test system: MOLT-4
DU-145 = test system: DU-145
MDA-MB-435 = test system: MDA-MB-435
K562 = test system: K562
MDA-MB-231 = test system: MDA-MB-231
SF-539 = test system: SF-539
NCI-H23 = test system: NCI-H23
BT-549 = test system: BT-549
786-0 = test system: 786-0
SK-MEL-28 = test system: SK-MEL-28
SK-MEL-5 = test system: SK-MEL-5
KM12 = test system: KM12
CCRF-CEM = test system: CCRF-CEM
SF-268 = test system: SF-268
OVCAR-3 = test system: OVCAR-3
M14 = test system: M14
SW-620 = test system: SW-620
EKVX = test system: EKVX
HCC 2998 = test system: HCC 2998
HL-60 = test system: HL-60
UO-31 = test system: UO-31
A549 = test system: A549
SK-OV-3 = test system: SK-OV-3
OVCAR-8 = test system: OVCAR-8
PC-3 = test system: PC-3
U-251 = test system: U-251
MCF7 = test system: MCF7
COLO 205 = test system: COLO 205
NCI-H522 = test system: NCI-H522
TK-10 = test system: TK-10
UACC-257 = test system: UACC-257
SNB-19 = test system: SNB-19
HCT-116 = test system: HCT-116
LOX IMVI = test system: LOX IMVI
HCT-15 = test system: HCT-15
SN12C = test system: SN12C
OVCAR-4 = test system: OVCAR-4
NCI-H460 = test system: NCI-H460
HOP-62 = test system: HOP-62
HT-29 = test system: HT-29
UACC-62 = test system: UACC-62
OVCAR-5 = test system: OVCAR-5
MDA-N = test system: MDA-N
SF-295 = test system: SF-295
NCI/ADR-RES = test system: NCI/ADR-RES
SR = test system: SR
RXF 393 = test system: RXF 393
CAKI-1 = test system: CAKI-1
SK-MEL-2 = test system: SK-MEL-2
NCI-H226 = test system: NCI-H226
RPMI-8226 = test system: RPMI-8226
ACHN = test system: ACHN
Malme-3M = test system: Malme-3M
Hs-578T = test system: Hs-578T
A498 = test system: A498
HOP-92 = test system: HOP-92

CCSCCCSCCSCC
GI50 (IGROV-1): > 100 µM (inactive)
GI50 (T47D): > 100 µM (inactive)
GI50 (SNB-75): > 100 µM (inactive)
GI50 (MOLT-4): 17.2 µM (inactive)
GI50 (DU-145): > 100 µM (inactive)
GI50 (MDA-MB-435): > 100 µM (inactive)
GI50 (K562): > 100 µM (inactive)
GI50 (MDA-MB-231): > 100 µM (inactive)
GI50 (SF-539): > 100 µM (inactive)
GI50 (NCI-H23): > 100 µM (inactive)
GI50 (BT-549): > 100 µM (inactive)
GI50 (786-0): > 100 µM (inactive)
GI50 (SK-MEL-28): > 100 µM (inactive)
GI50 (SK-MEL-5): > 100 µM (inactive)
GI50 (KM12): > 100 µM (inactive)
GI50 (CCRF-CEM): > 100 µM (inactive)
GI50 (SF-268): > 100 µM (inactive)
GI50 (OVCAR-3): > 100 µM (inactive)
GI50 (M14): > 100 µM (inactive)
GI50 (SW-620): > 100 µM (inactive)
GI50 (EKVX): > 100 µM (inactive)
GI50 (HCC 2998): > 100 µM (inactive)
GI50 (HL-60): 26.4 µM (inactive)
GI50 (UO-31): > 100 µM (inactive)
GI50 (A549): > 100 µM (inactive)
GI50 (SK-OV-3): > 100 µM (inactive)
GI50 (OVCAR-8): > 100 µM (inactive)
GI50 (PC-3): > 100 µM (inactive)
GI50 (U-251): > 100 µM (inactive)
GI50 (MCF7): > 100 µM (inactive)
GI50 (COLO 205): > 100 µM (inactive)
GI50 (NCI-H522): > 100 µM (inactive)
GI50 (TK-10): > 100 µM (inactive)
GI50 (UACC-257): > 100 µM (inactive)
GI50 (SNB-19): > 100 µM (inactive)
GI50 (HCT-116): > 100 µM (inactive)
GI50 (LOX IMVI): > 100 µM (inactive)
GI50 (HCT-15): > 100 µM
GI50 (SN12C): > 100 µM (inactive)
GI50 (OVCAR-4): 81.5 µM (inactive)
GI50 (NCI-H460): > 100 µM (inactive)
GI50 (HOP-62): > 100 µM (inactive)
GI50 (HT-29): > 100 µM (inactive)
GI50 (UACC-62): > 100 µM (inactive)
GI50 (OVCAR-5): > 100 µM (inactive)
GI50 (MDA-N): > 100 µM (inactive)
GI50 (SF-295): > 100 µM (inactive)

O=C1NCCCNCCCNCCCNC(=O)c2cccc1n2
GI50 (NCI/ADR-RES): > 100 µM (inactive)
GI50 (IGROV-1): > 100 µM (inactive)
GI50 (SNB-75): > 100 µM (inactive)
GI50 (SR): > 100 µM (inactive)
GI50 (MOLT-4): > 100 µM (inactive)
GI50 (MDA-MB-435): > 100 µM (inactive)
GI50 (K562): > 100 µM (inactive)
GI50 (RXF 393): 18.1 µM (inactive)
GI50 (CAKI-1): > 100 µM (inactive)
GI50 (MDA-MB-231): > 100 µM (inactive)
GI50 (SF-539): > 100 µM (inactive)
GI50 (NCI-H23): > 100 µM (inactive)
GI50 (BT-549): > 100 µM (inactive)
GI50 (786-0): > 100 µM (inactive)
GI50 (SK-MEL-28): > 100 µM (inactive)
GI50 (SK-MEL-5): > 100 µM (inactive)
GI50 (KM12): > 100 µM (inactive)
GI50 (CCRF-CEM): > 100 µM (inactive)
GI50 (SK-MEL-2): 63.2 µM (inactive)
GI50 (SF-268): > 100 µM (inactive)
GI50 (OVCAR-3): > 100 µM (inactive)
GI50 (M14): > 100 µM (inactive)
GI50 (SW-620): > 100 µM (inactive)
GI50 (EKVX): > 100 µM (inactive)
GI50 (NCI-H226): > 100 µM (inactive)
GI50 (HCC 2998): > 100 µM (inactive)
GI50 (RPMI-8226): > 100 µM (inactive)
GI50 (UO-31): > 100 µM (inactive)
GI50 (A549): > 100 µM (inactive)
GI50 (SK-OV-3): > 100 µM (inactive)
GI50 (ACHN): > 100 µM (inactive)
GI50 (OVCAR-8): > 100 µM (inactive)
GI50 (PC-3): > 100 µM (inactive)
GI50 (U-251): > 100 µM (inactive)
GI50 (COLO 205): > 100 µM (inactive)
GI50 (NCI-H522): > 100 µM (inactive)
GI50 (TK-10): > 100 µM (inactive)
GI50 (UACC-257): > 100 µM (inactive)
GI50 (SNB-19): > 100 µM (inactive)
GI50 (HCT-116): > 100 µM (inactive)
GI50 (LOX IMVI): > 100 µM (inactive)
GI50 (HCT-15): > 100 µM
GI50 (SN12C): > 100 µM (inactive)
GI50 (OVCAR-4): > 100 µM (inactive)
GI50 (Malme-3M): > 100 µM (inactive)
GI50 (NCI-H460): > 100 µM (inactive)
GI50 (HOP-62): > 100 µM (inactive)
GI50 (HT-29): > 100 µM (inactive)
GI50 (UACC-62): > 100 µM (inactive)
GI50 (Hs-578T): > 100 µM (inactive)
GI50 (OVCAR-5): > 100 µM (inactive)
GI50 (MDA-N): > 100 µM (inactive)
GI50 (SF-295): > 100 µM (inactive)

c1ccc2c(-c3csc(-c4c[nH]c5ccccc45)n3)c[nH]c2c1
GI50 (NCI/ADR-RES): > 100 µM (inactive)
GI50 (IGROV-1): > 28.5 µM (inactive)
GI50 (SNB-75): > 22.4 µM (inactive)
GI50 (SR): 2.93 µM (inactive)
GI50 (MOLT-4): 4.86 µM (inactive)
GI50 (DU-145): > 76.7 µM (inactive)
GI50 (MDA-MB-435): 35.8 µM (inactive)
GI50 (K562): 3.37 µM (inactive)
GI50 (RXF 393): > 100 µM (inactive)
GI50 (CAKI-1): > 100 µM (inactive)
GI50 (MDA-MB-231): > 67.8 µM (inactive)
GI50 (SF-539): > 100 µM (inactive)
GI50 (NCI-H23): > 100 µM (inactive)
GI50 (BT-549): > 100 µM (inactive)
GI50 (786-0): > 65 µM (inactive)
GI50 (SK-MEL-28): > 100 µM (inactive)
GI50 (KM12): 14.9 µM (inactive)
GI50 (SK-MEL-2): > 100 µM (inactive)
GI50 (SF-268): > 100 µM (inactive)
GI50 (OVCAR-3): > 100 µM (inactive)
GI50 (M14): > 100 µM (inactive)
GI50 (SW-620): > 100 µM (inactive)
GI50 (EKVX): > 100 µM (inactive)
GI50 (NCI-H226): > 100 µM (inactive)
GI50 (HCC 2998): > 100 µM (inactive)
GI50 (HL-60): 14.4 µM (inactive)
GI50 (UO-31): > 48.1 µM (inactive)
GI50 (A549): 96.8 µM (inactive)
GI50 (SK-OV-3): > 44.8 µM (inactive)
GI50 (ACHN): > 100 µM (inactive)
GI50 (OVCAR-8): > 100 µM (inactive)
GI50 (PC-3): > 100 µM (inactive)
GI50 (U-251): > 90.6 µM (inactive)
GI50 (MCF7): > 52.1 µM (inactive)
GI50 (A498): > 100 µM (inactive)
GI50 (TK-10): 63.8 µM (inactive)
GI50 (UACC-257): > 100 µM (inactive)
GI50 (SNB-19): > 89.7 µM (inactive)
GI50 (HCT-116): > 48.8 µM (inactive)
GI50 (LOX IMVI): 21.8 µM (inactive)
GI50 (HCT-15): > 100 µM
GI50 (SN12C): > 100 µM (inactive)
GI50 (OVCAR-4): > 100 µM (inactive)
GI50 (Malme-3M): > 100 µM (inactive)
GI50 (NCI-H460): > 53.7 µM (inactive)
GI50 (HOP-62): 56.4 µM (inactive)
GI50 (HT-29): 39.4 µM (inactive)
GI50 (UACC-62): > 100 µM (inactive)
GI50 (Hs-578T): 61.1 µM (inactive)
GI50 (HOP-92): > 100 µM (inactive)
GI50 (OVCAR-5): > 51.9 µM (inactive)
GI50 (MDA-N): 49 µM (inactive)
GI50 (SF-295): 15.4 µM (inactive)
